# Earlier results in patent publication US20250375395A1 (priority 2016, published 2025).
# Conditions: carbonic acid/sodium bicarbonate
structure (smiles),measurement,value
O=C([O-])O.[Na+] [sodium bicarbonate],pKa,6.4
